Source: US20050187244A1 (Entire Interest., priority 2004, published 2005)

Columns and labels:
[1] = powder; cited from earlier work
[2] = Solid form transformation on drying; assay type: physicochemical; conditions: drying under heating, preferably 50 C. overnight under vacuum, about 10-100 mm Hg; monosodium salt
Experimental: The various forms are related in that drying of one form may lead to another form. Drying may be carried out under ambient or reduced pressure under heating. The temperature during heating is preferably about 40° C. to about 60° C., more preferably about 40° C. to about 50° C. The drying for a few days, such as about two days may be sufficient for transformation. In a preferred embodiment, drying is performed at 50C. overnight under vacuum, about 10-100 mm Hg.
Some solutions were stirred at room temperature; others were heated to the indicated temperature. The precipitate was recovered by filtration and washed with the solvent (5 mL) to obtain a wet sample. A portion of the wet sample was dried overnight in a vacuum at 50° C. at 10-50 mm Hg to obtain a dry sample. The wet and dry samples were analyzed by X-ray diffraction.

[3] = Solid form transformation while stirred in organic solvent (slurry); assay type: physicochemical; conditions: stirred in an organic solvent for more than about 2 days, e.g. dichloromethane and optionally heptane
Excerpt: The various forms are related in that one form may transform to another while in an organic solvent, such as a slurry resulting from crystallization. […] Such transformation occurs for example in a reaction mixture containing dichloromethane and optionally a C5 to C12 hydrocarbon such as heptane.

## CC(C)(O)c1ccccc1CC[C@@H](SCC1(CC(=O)[O-])CC1)c1cccc(/C=C/c2ccc3ccc(Cl)cc3n2)c1.[Na+] [Montelukast sodium, [R-(E)]-1-[[[1-[3-[2-(7-chloro-2-quinolinyl)ethenyl]phenyl]-3-[2-(1-hydroxy-1-methylethyl)phenyl]propyl]thio]methyl]cyclopropaneacetic acid, monosodium salt]
[1]
  hygroscopicity: hygroscopic

## CC(C)(O)c1ccccc1CC[C@@H](SCC1(CC(=O)[O-])CC1)c1cccc(/C=C/c2ccc3ccc(Cl)cc3n2)c1.[Na+] [Form B2, [R-(E)]-1-[[[1-[3-[2-(7-chloro-2-quinolinyl)ethenyl]phenyl]-3-[2-(1-hydroxy-1-methylethyl)phenyl]propyl]thio]methyl]cyclopropaneacetic acid, monosodium salt]
[2]
  form obtained on drying: Form B1 or form C

## CC(C)(O)c1ccccc1CC[C@@H](SCC1(CC(=O)[O-])CC1)c1cccc(/C=C/c2ccc3ccc(Cl)cc3n2)c1.[Na+] [Form B1, [R-(E)]-1-[[[1-[3-[2-(7-chloro-2-quinolinyl)ethenyl]phenyl]-3-[2-(1-hydroxy-1-methylethyl)phenyl]propyl]thio]methyl]cyclopropaneacetic acid, monosodium salt]
[2]
  form obtained on drying: Form C
[3]
  form transformation in organic solvent: transforms to Form C
